# Measurements as given in ChEMBL document CHEMBL1122547, “Diastereomeric 6-desoxy-6-spiro-alpha-methylene-gamma-butyrolactone derivatives of naltrexone and oxymorphone. Selective irreversible inhibition of naltrexone binding in an opioid receptor preparation by a conformationally restricted michael acceptor ligand” (J Med Chem, 1984).
# Values joined by “and” are separate entries in the source; they are usually repeats but may differ in a detail not shown here. Equal entries are not always repeated.
# What was measured:
# [1] = Ratio of IC50(presence of NaCl) to that of IC50(absence of NaCl)
# Mus musculus [2] = species on record: Mus musculus; experiment: Compound was tested for irreversible inhibition of [3H]- Naltrexone binding with 10 nM naloxone+ 5 nM protection in the presence of NaCl (washed); format: functional; set-up: scale not given: the % may be the effect or the level left
# Mus musculus [3] = species on record: Mus musculus; experiment: Compound was tested for irreversible inhibition of [3H]- Naltrexone binding with 10 nM naloxone+ 5 nM protection in the presence of NaCl (unwashed); format: functional; set-up: scale not given: the % may be the effect or the level left
# Mus musculus [4] = species on record: Mus musculus; experiment: Compound was tested for irreversible inhibition of [3H]- Naltrexone binding with 10 nM naloxone+5 nM protection in the presence of NaCl (washed); format: functional; set-up: scale not given: the % may be the effect or the level left
Compound,Ratio [1],Control (Mus musculus [2]) [%],Control (Mus musculus [3]),Control (Mus musculus [4]) [%]
C=C1CC2(CCC3(O)[C@H]4Cc5ccc(O)c6c5[C@@]3(CCN4CC3CC3)C2O6)OC1=O (stereo in doubt; 4a),0.8,,,
C=C1CC2(CCC3(O)[C@H]4Cc5ccc(O)c6c5[C@@]3(CCN4C)C2O6)OC1=O (stereo in doubt; 4b),7.6,,,
C=C1CC2(CCC3(O)[C@H]4Cc5ccc(O)c6c5[C@@]3(CCN4CC3CC3)C2O6)OC1=O (stereo in doubt; 5a) [listing 1 of 2 here],,93,28% and 13%,80
C=C1CC2(CCC3(O)[C@H]4Cc5ccc(O)c6c5[C@@]3(CCN4CC3CC3)C2O6)OC1=O (stereo in doubt; 5a) [listing 2 of 2 here],0.4,,,
C=C1CC2(CCC3(O)[C@H]4Cc5ccc(O)c6c5[C@@]3(CCN4C)C2O6)OC1=O (stereo in doubt; 5b),7.1,,,
